{
  "source": "paper PMC12310023",
  "about": "(PLOS Neglected Tropical Diseases, 2025)",
  "key": {"[1]": {"test_system": "A-375, Hs294T, MEWO, and Colo678 carcinoma cell lines"}, "[2]": {"test_system": "NLuc-expressing C. parvum", "assay": "NLuc C. parvum IFNγ-KO mouse infection model, oocyst shedding", "assay_type": "in vivo"}, "[3]": {"assay": "Mouse plasma, brain and GI exposure PK, Balb/c, 30 mg/kg PO", "conditions": "Brains, 0.5 hr, individual samples"}},
  "data": [
    {"smiles": "CC(=O)Nc1cccc(-n2c(=O)n(C3CC3)c(=O)c3c(Nc4ccc(I)cc4F)n(C)c(=O)c(C)c32)c1", "note": "[Trametinib]", "values": [
      {"measurement": "inhibitory concentration in MEK1 proliferation-dependent cell lines", "setting": "[1]", "value": "7 to 60", "unit": "nM"}
    ]},
    {"smiles": "CC1(C)Cn2nc(-c3ccc4cc(OC5CC5)ccc4c3)c(C(N)=O)c2NC1O", "note": "(centres unmarked) [compound 1862]", "values": [
      {"measurement": "RLU Raw", "setting": "[2]; 8 mg/kg x 3 d, Day 6", "value": 1384352, "unit": "RLU"},
      {"measurement": "RLU Raw", "setting": "[2]; 8 mg/kg x 3 d, Day 7", "value": 821824, "unit": "RLU"},
      {"measurement": "RLU Raw", "setting": "[2]; 8 mg/kg x 3 d, Day 8", "value": 1485152, "unit": "RLU"},
      {"measurement": "RLU Raw", "setting": "[2]; 8 mg/kg x 3 d, Day 9", "value": 162144, "unit": "RLU"},
      {"measurement": "RLU Raw", "setting": "[2]; 8 mg/kg x 3 d, Day 10", "value": 41552, "unit": "RLU"},
      {"measurement": "RLU Raw", "setting": "[2]; 8 mg/kg x 3 d, Day 13", "value": 6176, "unit": "RLU"},
      {"measurement": "RLU Raw", "setting": "[2]; 8 mg/kg x 3 d, Day 15", "value": 4992, "unit": "RLU"},
      {"measurement": "RLU Raw", "setting": "[2]; 8 mg/kg x 3 d, Day 17", "value": 608, "unit": "RLU"},
      {"measurement": "RLU Raw", "setting": "[2]; 8 mg/kg x 3 d, Day 20", "value": 1296, "unit": "RLU"},
      {"measurement": "RLU standardized by fecal weight (Normalized)", "setting": "[2]; 8 mg/kg x 3 d, day 6 p.i.", "value": 226943, "unit": "RLU"},
      {"measurement": "RLU standardized by fecal weight (Normalized)", "setting": "[2]; 8 mg/kg x 3 d, day 7 p.i.", "value": 75397, "unit": "RLU"},
      {"measurement": "RLU standardized by fecal weight (Normalized)", "setting": "[2]; 8 mg/kg x 3 d, day 8 p.i.", "value": 146320, "unit": "RLU"},
      {"measurement": "RLU standardized by fecal weight (Normalized)", "setting": "[2]; 8 mg/kg x 3 d, day 9 p.i.", "value": 15516, "unit": "RLU"},
      {"measurement": "RLU standardized by fecal weight (Normalized)", "setting": "[2]; 8 mg/kg x 3 d, day 10 p.i.", "value": 4240, "unit": "RLU"},
      {"measurement": "RLU standardized by fecal weight (Normalized)", "setting": "[2]; 8 mg/kg x 3 d, day 13 p.i.", "value": 468, "unit": "RLU"},
      {"measurement": "RLU standardized by fecal weight (Normalized)", "setting": "[2]; 8 mg/kg x 3 d, day 15 p.i.", "value": 409, "unit": "RLU"},
      {"measurement": "RLU standardized by fecal weight (Normalized)", "setting": "[2]; 8 mg/kg x 3 d, day 17 p.i.", "value": 61, "unit": "RLU"},
      {"measurement": "RLU standardized by fecal weight (Normalized)", "setting": "[2]; 8 mg/kg x 3 d, day 20 p.i.", "value": 214, "unit": "RLU"},
      {"measurement": "RLU Raw", "setting": "[2]; 15 mg/kg x 3 d, Day 6", "value": 1490624, "unit": "RLU"},
      {"measurement": "RLU Raw", "setting": "[2]; 15 mg/kg x 3 d, Day 7", "value": 876560, "unit": "RLU"},
      {"measurement": "RLU Raw", "setting": "[2]; 15 mg/kg x 3 d, Day 8", "value": 670544, "unit": "RLU"},
      {"measurement": "RLU Raw", "setting": "[2]; 15 mg/kg x 3 d, Day 9", "value": 9856, "unit": "RLU"},
      {"measurement": "RLU Raw", "setting": "[2]; 15 mg/kg x 3 d, Day 10", "value": 2928, "unit": "RLU"},
      {"measurement": "RLU Raw", "setting": "[2]; 15 mg/kg x 3 d, Day 13", "value": 512, "unit": "RLU"},
      {"measurement": "RLU Raw", "setting": "[2]; 15 mg/kg x 3 d, Day 15", "value": 400, "unit": "RLU"},
      {"measurement": "RLU Raw", "setting": "[2]; 15 mg/kg x 3 d, Day 17", "value": 288, "unit": "RLU"},
      {"measurement": "RLU Raw", "setting": "[2]; 15 mg/kg x 3 d, Day 20", "value": 192, "unit": "RLU"},
      {"measurement": "RLU standardized by fecal weight (Normalized)", "setting": "[2]; 15 mg/kg x 3 d, day 6 p.i.", "value": 200084, "unit": "RLU"},
      {"measurement": "RLU standardized by fecal weight (Normalized)", "setting": "[2]; 15 mg/kg x 3 d, day 7 p.i.", "value": 110259, "unit": "RLU"},
      {"measurement": "RLU standardized by fecal weight (Normalized)", "setting": "[2]; 15 mg/kg x 3 d, day 8 p.i.", "value": 111757, "unit": "RLU"},
      {"measurement": "RLU standardized by fecal weight (Normalized)", "setting": "[2]; 15 mg/kg x 3 d, day 9 p.i.", "value": 1398, "unit": "RLU"},
      {"measurement": "RLU standardized by fecal weight (Normalized)", "setting": "[2]; 15 mg/kg x 3 d, day 10 p.i.", "value": 284, "unit": "RLU"},
      {"measurement": "RLU standardized by fecal weight (Normalized)", "setting": "[2]; 15 mg/kg x 3 d, day 13 p.i.", "value": 37, "unit": "RLU"},
      {"measurement": "RLU standardized by fecal weight (Normalized)", "setting": "[2]; 15 mg/kg x 3 d, day 15 p.i.", "value": 29, "unit": "RLU"},
      {"measurement": "RLU standardized by fecal weight (Normalized)", "setting": "[2]; 15 mg/kg x 3 d, day 17 p.i.", "value": 32, "unit": "RLU"},
      {"measurement": "RLU standardized by fecal weight (Normalized)", "setting": "[2]; 15 mg/kg x 3 d, day 20 p.i.", "value": 66, "unit": "RLU"},
      {"measurement": "RLU Raw", "setting": "[2]; 30 mg/kg x 3 d, Day 6", "value": 1093968, "unit": "RLU"},
      {"measurement": "RLU Raw", "setting": "[2]; 30 mg/kg x 3 d, Day 7", "value": 650000, "unit": "RLU"},
      {"measurement": "RLU Raw", "setting": "[2]; 30 mg/kg x 3 d, Day 8", "value": 37104, "unit": "RLU"},
      {"measurement": "RLU Raw", "setting": "[2]; 30 mg/kg x 3 d, Day 9", "value": 1536, "unit": "RLU"},
      {"measurement": "RLU Raw", "setting": "[2]; 30 mg/kg x 3 d, Day 10", "value": 336, "unit": "RLU"},
      {"measurement": "RLU Raw", "setting": "[2]; 30 mg/kg x 3 d, Day 13", "value": 208, "unit": "RLU"},
      {"measurement": "RLU Raw", "setting": "[2]; 30 mg/kg x 3 d, Day 15", "value": 240, "unit": "RLU"},
      {"measurement": "RLU Raw", "setting": "[2]; 30 mg/kg x 3 d, Day 17", "value": 2640, "unit": "RLU"},
      {"measurement": "RLU Raw", "setting": "[2]; 30 mg/kg x 3 d, Day 20", "value": 192, "unit": "RLU"},
      {"measurement": "RLU standardized by fecal weight (Normalized)", "setting": "[2]; 30 mg/kg x 3 d, day 6 p.i.", "value": 163279, "unit": "RLU"},
      {"measurement": "RLU standardized by fecal weight (Normalized)", "setting": "[2]; 30 mg/kg x 3 d, day 7 p.i.", "value": 191176, "unit": "RLU"},
      {"measurement": "RLU standardized by fecal weight (Normalized)", "setting": "[2]; 30 mg/kg x 3 d, day 8 p.i.", "value": 11969, "unit": "RLU"},
      {"measurement": "RLU standardized by fecal weight (Normalized)", "setting": "[2]; 30 mg/kg x 3 d, day 9 p.i.", "value": 290, "unit": "RLU"},
      {"measurement": "RLU standardized by fecal weight (Normalized)", "setting": "[2]; 30 mg/kg x 3 d, day 10 p.i.", "value": 51, "unit": "RLU"},
      {"measurement": "RLU standardized by fecal weight (Normalized)", "setting": "[2]; 30 mg/kg x 3 d, day 13 p.i.", "value": 29, "unit": "RLU"},
      {"measurement": "RLU standardized by fecal weight (Normalized)", "setting": "[2]; 30 mg/kg x 3 d, day 15 p.i.", "value": 21, "unit": "RLU"},
      {"measurement": "RLU standardized by fecal weight (Normalized)", "setting": "[2]; 30 mg/kg x 3 d, day 17 p.i.", "value": 290, "unit": "RLU"},
      {"measurement": "RLU standardized by fecal weight (Normalized)", "setting": "[2]; 30 mg/kg x 3 d, day 20 p.i.", "value": 23, "unit": "RLU"},
      {"measurement": "Brains concentration", "setting": "[3]", "value": 0.0641, "unit": "µM"}
    ]}
  ]
}
